Here are results for six compounds from PubChem BioAssay (NCI).

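Assay format: 96-well plates, 48-hour exposure. At the GI50, growth is halved. Definition used: TGI = concentration required for complete inhibition of growth.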

Test systems include SW-620 colon; TK-10 renal; NCI/ADR-RES ovarian; ACHN renal; SK-OV-3 ovarian; MDA-MB-435; HCC-2998 colon; KM12 colon; NCI-H226 lung; A498 renal.
What all share (assay): NCI anticancer screen, dose series, 48 h

As for `CNCCN(C)Cc1cn[nH]c1-c1ccc(OC2CC(OCCC3CCOCC3)C2)cc1` (stereo not given), the GI50 with SW-620 colon is above 100 µM; with TK-10 renal, above 100 µM; in the test on NCI/ADR-RES ovarian it was above 100 µM; in the test with ACHN renal it was 64.6 µM; in the test with SK-OV-3 ovarian, above 100 µM; with MDA-MB-435 it was above 100 µM. Moreover, the GI50 is above 100 µM in the test with HCC-2998 colon, above 83.9 µM in the test with KM12 colon, above 100 µM in the test on NCI-H226 lung and above 57.1 µM in the test with A498 renal. The TGI in the test with SW-620 colon, in the test with TK-10 renal, with NCI/ADR-RES ovarian, in the test with ACHN renal, in the test with SK-OV-3 ovarian and with MDA-MB-435 was above 100 µM throughout. Further, the TGI in the test with HCC-2998 colon, with KM12 colon, in the test with NCI-H226 lung and in the test with A498 renal was above 100 µM throughout.
For `O=C(c1ccco1)c1c(C(F)(F)F)n([O-])c2ccc(F)cc2[n+]1=O`, the GI50 in the test on SW-620 colon was 0.316 µM; in the test with TK-10 renal, 1.42 µM; in the test on NCI/ADR-RES ovarian, 2.19 µM; in the test on ACHN renal, 1.33 µM; with SK-OV-3 ovarian, 6.02 µM; in the test with MDA-MB-435, 1.3 µM. Also, the GI50 in the test with HCC-2998 colon is 0.775 µM; in the test on KM12 colon, 0.213 µM; with NCI-H226 lung, 5.38 µM; in the test on A498 renal it was 8.53 µM. Further, the TGI was 1.16 µM in the test on SW-620 colon; 3.36 µM in the test with TK-10 renal; 5.59 µM with NCI/ADR-RES ovarian; 2.62 µM in the test on ACHN renal; 18.6 µM in the test with SK-OV-3 ovarian; 2.75 µM with MDA-MB-435. Also, the TGI turned out to be 2.02 µM with HCC-2998 colon, 0.568 µM in the test with KM12 colon, 22.1 µM with NCI-H226 lung and 24.3 µM in the test with A498 renal.
`Cc1cc2c(cc1Cl)SC(C(=O)c1ccc(Cl)c(Cl)c1)NS2(=O)=O` (stereo not given): the GI50 in the test on SW-620 colon was 27.6 µM; in the test with TK-10 renal, 84.7 µM; with NCI/ADR-RES ovarian it was 38.6 µM; with ACHN renal, 29.8 µM; in the test with SK-OV-3 ovarian, 33.7 µM; with MDA-MB-435, 26.7 µM. Further, the GI50 in the test with HCC-2998 colon is 19.8 µM; in the test with KM12 colon, 30.9 µM; in the test on NCI-H226 lung, 49.9 µM; with A498 renal, 70.5 µM. In addition, the TGI is 72.9 µM with SW-620 colon; above 100 µM in the test with TK-10 renal; above 100 µM in the test with NCI/ADR-RES ovarian; 85.6 µM in the test on ACHN renal; 91.4 µM in the test on SK-OV-3 ovarian; 65.6 µM with MDA-MB-435. Moreover, the TGI in the test with HCC-2998 colon is 35.1 µM; in the test on KM12 colon it was 80.9 µM; with NCI-H226 lung, above 100 µM; in the test with A498 renal, above 100 µM.
On to `COC1=CC2CCN3Cc4cc5c(cc4C(C1O)C23)OCC5` (stereo not given), for which the GI50 with SW-620 colon is 5.21 µM; in the test with TK-10 renal, 5.53 µM; in the test with NCI/ADR-RES ovarian it was 3 µM; in the test on ACHN renal it was 0.306 µM; with SK-OV-3 ovarian it was 1.84 µM; with MDA-MB-435, 3.44 µM. Moreover, the GI50 is 1.09 µM in the test on HCC-2998 colon, 3.06 µM in the test on KM12 colon, 1.72 µM in the test on NCI-H226 lung and 17.7 µM with A498 renal. For the same compound, the TGI in the test on SW-620 colon was above 100 µM; in the test on TK-10 renal it was 41.9 µM; with NCI/ADR-RES ovarian, 18.4 µM; in the test on ACHN renal, 2.31 µM; with SK-OV-3 ovarian, above 100 µM; in the test on MDA-MB-435, 21.3 µM. The TGI in the test with HCC-2998 colon was 7.37 µM; in the test on KM12 colon, 30.3 µM; in the test with NCI-H226 lung it was 7.6 µM; in the test with A498 renal, 98.8 µM.
With `O=C1/C(=C/c2ccccc2[N+](=O)[O-])COc2ccc(O)c(O)c21`, the GI50 is 0.353 µM in the test on SW-620 colon; 1.22 µM in the test on TK-10 renal; 1.23 µM in the test with NCI/ADR-RES ovarian; 0.278 µM with ACHN renal; 3.91 µM with SK-OV-3 ovarian; 0.691 µM in the test with MDA-MB-435. Further, the GI50 was 1.56 µM in the test with HCC-2998 colon, 1.55 µM with KM12 colon, 3.97 µM in the test with NCI-H226 lung and 2.11 µM in the test on A498 renal. Also, the TGI turned out to be 1.44 µM in the test on SW-620 colon; 3.32 µM with TK-10 renal; 13.6 µM in the test on NCI/ADR-RES ovarian; 0.863 µM in the test on ACHN renal; 14.3 µM in the test on SK-OV-3 ovarian; 2.38 µM in the test with MDA-MB-435. Further, the TGI in the test with HCC-2998 colon came to 3.16 µM; in the test on KM12 colon, 3.72 µM; with NCI-H226 lung, 25.2 µM; in the test with A498 renal, 5.07 µM.
Consider `CC(C)[C@H](C(=O)O[C@@H]1/C=C/C(=O)O[C@@H](C)CCC/C=C/[C@@H]2C[C@H](O)C[C@H]21)N(C)C`, for which the GI50 with SW-620 colon is 6.35 µM; with TK-10 renal, 14.7 µM; in the test with NCI/ADR-RES ovarian, 14.9 µM; in the test with ACHN renal, 35.2 µM; with SK-OV-3 ovarian it was 17.9 µM; in the test on MDA-MB-435, 5.84 µM. The GI50 in the test with HCC-2998 colon was 12.9 µM; in the test on KM12 colon, 3.65 µM; in the test on NCI-H226 lung, 11.2 µM; in the test on A498 renal, 2.08 µM. Moreover, the TGI with SW-620 colon is 21.8 µM; in the test with TK-10 renal, 60.8 µM; with NCI/ADR-RES ovarian it was above 87.8 µM; with ACHN renal it was above 100 µM; in the test with SK-OV-3 ovarian it was above 96.7 µM; in the test with MDA-MB-435, above 55.8 µM. Further, the TGI with HCC-2998 colon was 62.2 µM; in the test on KM12 colon, 11 µM; in the test with NCI-H226 lung, 44.2 µM; in the test on A498 renal it was 6.62 µM.
